Experimental data as given in US8211890B2, “5-amino-2-(1-hydroxy-ethyl)-tetrahydropyran derivatives” (Actelion Pharmaceuticals, priority 2008, dated 2012).
≈ marks a conversion by molar mass, not a printed value.

test system: S. aureus A798; test: Bacterial growth minimal inhibitory concentrations (microdilution, cation-adjusted Mueller-Hinton Broth); assay type: cell-based; conditions: Staphylococcus aureus, microdilution
Procedure: Minimal inhibitory concentrations (MICs; mg/l) were determined in cation-adjusted Mueller-Hinton Broth by a microdilution method following the description given in “Methods for Dilution Antimicrobial Susceptibility Tests for Bacteria that Grow Aerobically”, Approved standard, 7th ed., Clinical and Laboratory Standards Institute (CLSI) Document M7-A7, Wayne, Pa., USA, 2006.

MIC [µg/mL] | Structure (SMILES)
≤ 0.031 | [2H][C@](O)(Cc1c(F)cnc2ccc(OC)nc12)[C@@H]1CC[C@@H](NCc2cc3c(cn2)OCCO3)CO1 (single isomer, unassigned) [Example 18]
0.25 (≈ 0.551 µM) | COc1ccc2nccc(C[C@H](O)[C@@H]3CC[C@@H](NCc4cc5c(nn4)OCCO5)CO3)c2n1 [Example 2, (1S)-1-{(2S,5R)-5-[(6,7-dihydro-[1,4]dioxino[2,3-c]pyridazin-3-ylmethyl)-amino]-tetrahydro-pyran-2-yl}-2-(6-methoxy-[1,5]naphthyridin-4-yl)-ethanol]
≤ 0.031 | COc1ccc2ccc(F)c(C[C@H](O)[C@@H]3CC[C@@H](NCc4cc5c(cn4)OCCO5)CO3)c2n1 [Example 5, (1S)-1-{(2S,5R)-5-[(2,3-dihydro-[1,4]dioxino[2,3-c]pyridin-7-ylmethyl)-amino]-tetrahydro-pyran-2-yl}-2-(7-fluoro-2-methoxy-quinolin-8-yl)-ethanol]
≤ 0.031 | COc1ccc2ncc(F)c(C[C@H](O)[C@@H]3CC[C@@H](NCc4cc5c(cn4)OCCS5)CO3)c2n1 [Example 6, (1S)-1-{(2S,5R)-5-[(2,3-dihydro-4-oxa-1-thia-6-aza-naphthalen-7-ylmethyl)-amino]-tetrahydro-pyran-2-yl}-2-(3-fluoro-6-methoxy-[1,5]naphthyridin-4-yl)-ethanol]
≤ 0.031 | COc1ccc2ccc(F)c(C[C@H](O)[C@@H]3CC[C@@H](NCc4cc5c(cn4)OCCS5)CO3)c2n1 [Example 7, (1S)-1-{(2S,5R)-5-[(2,3-dihydro-4-oxa-1-thia-6-aza-naphthalen-7-ylmethyl)-amino]-tetrahydro-pyran-2-yl}-2-(7-fluoro-2-methoxy-quinolin-8-yl)-ethanol]
≤ 0.031 | COc1ccc2ncc(F)c(C[C@H](O)[C@@H]3CC[C@@H](NCc4cc5c(cn4)OCS5)CO3)c2n1 [Example 8, (1S)-2-(3-fluoro-6-methoxy-[1,5]naphthyridin-4-yl)-1-{(2S,5R)-5-[(3-oxa-1-thia-5-aza-indan-6-ylmethyl)-amino]tetrahydro-pyran-2-yl}-ethanol]
≤ 0.031 | COc1ccc2ccc(F)c(C[C@H](O)[C@@H]3CC[C@@H](NCc4cc5c(cn4)OCS5)CO3)c2n1 [Example 9, (1S)-2-(7-fluoro-2-methoxy-quinolin-8-yl)-1-{(2S,5R)-5-[(3-oxa-1-thia-5-aza-indan-6-ylmethyl)-amino]-tetrahydro-pyran-2-yl}-ethanol]
≤ 0.031 | COc1ccc2ncc(F)c(C[C@H](O)[C@@H]3CC[C@@H](NCc4cc5c(cn4)OCCC5)CO3)c2n1 [Example 10, (1S)-1-{(2S,5R)-5-[(3,4-dihydro-2H-pyrano[2,3-c]pyridin-6-ylmethyl)-amino]-tetrahydro-pyran-2-yl}-2-(3-fluoro-6-methoxy-[1,5]naphthyridin-4-yl)-ethanol]
≤ 0.031 | COc1ccc2ncc(F)c(C[C@H](O)[C@@H]3CC[C@@H](NCc4cc5c(nn4)OCCS5)CO3)c2n1 [Example 11, (1S)-1-{(2S,5R)-5-[(6,7-dihydro-8-oxa-5-thia-1,2-diaza-naphthalen-3-ylmethyl)-amino]-tetrahydro-pyran-2-yl}-2-(3-fluoro-6-methoxy-[1,5]naphthyridin-4-yl)-ethanol]
≤ 0.031 | COc1cnc2ccc(F)c(C[C@H](O)[C@@H]3CC[C@@H](NCc4cc5c(cn4)OCCO5)CO3)c2n1 [Example 12, (1S)-1-{(2S,5R)-5-[(2,3-dihydro-[1,4]dioxino[2,3-c]pyridin-7-ylmethyl)-amino]-tetrahydro-pyran-2-yl}-2-(6-fluoro-3-methoxy-quinoxalin-5-yl)-ethanol]
≤ 0.031 | COc1cnc2ccc(F)c(C[C@H](O)[C@@H]3CC[C@@H](NCc4cc5c(nn4)OCCO5)CO3)c2n1 [Example 13, (1S)-1-{(2S,5R)-5-[(6,7-dihydro-[1,4]dioxino[2,3-c]pyridazin-3-ylmethyl)-amino]tetrahydro-pyran-2-yl}-2-(6-fluoro-3-methoxy-quinoxalin-5-yl)-ethanol]
